Assay results as given in patent US9040519B2, “Fused tetracyclic pyrido [4,3-B] indole and pyrido [3,4-B] indole derivatives and methods of use” (Medivation Technologies, Inc., priority 2010, dated 2015).

Biological target: T1, human recombinant dopamine D2L receptor (Homo sapiens, UniProt P14416)
T1 construct: expressed in transfected cells; host or cells: CHO
Assay: Dopamine D2L radioligand binding ([3H]Spiperone)
Settings: compound at 1 μM; CHO cells; read-out: Percentage inhibition of ligand binding, Dopamine D2L
Description: To evaluate in radioligand binding assays the activity of compounds of the invention, human recombinant dopamine D2L receptor expressed in Chinese hamster ovary (CHO) cells (Grandy, D. et al, Proc. Natl. Acad. Sci. USA. 86:9762, 1989; Hayes, G. et al, Mol. Endocrinol. 6:920, 1992) in a modified Tris-HCl buffer (50 mM Tris-HCl, pH 7.4, 1.4 mM Ascorbic Acid, 0.001% BSA, 150 mM NaCl) was used. Compounds of the invention were incubated with 0.16 nM [^3H]Spiperone for 120 min at 25° C. Non-specific binding was estimated in the presence of 10 μM Haloperidol. Receptor proteins were filtered and washed, the filters were then counted to determine [^3H]Spiperone specifically bound. Compounds were screened at 1 μM or lower, using 1% DMSO as vehicle. Biochemical assay results are presented as the percent inhibition of specific binding in Table 3.

T1 sequence (P14416 whole entry): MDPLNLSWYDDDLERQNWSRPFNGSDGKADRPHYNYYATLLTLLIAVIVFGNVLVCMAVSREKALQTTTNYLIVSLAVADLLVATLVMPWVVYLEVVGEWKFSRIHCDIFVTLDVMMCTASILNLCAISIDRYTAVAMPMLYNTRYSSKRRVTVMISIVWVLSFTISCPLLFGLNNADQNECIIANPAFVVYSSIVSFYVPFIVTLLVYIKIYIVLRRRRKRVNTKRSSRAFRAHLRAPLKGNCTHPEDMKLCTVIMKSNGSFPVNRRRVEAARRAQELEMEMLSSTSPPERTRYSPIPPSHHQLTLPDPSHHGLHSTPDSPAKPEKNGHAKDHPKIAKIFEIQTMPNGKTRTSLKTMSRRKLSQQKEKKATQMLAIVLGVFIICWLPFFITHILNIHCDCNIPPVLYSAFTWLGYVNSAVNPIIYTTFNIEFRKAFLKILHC

SMILES | inhibition at 1 µM
Cc1ccc2c(c1)c1c3n2CC(c2ccncc2)=CCC3(C)CN(C)C1 (stereo not drawn) [Compound 11, 2,3a,10-trimethyl-6-pyridin-4-yl-1,2,3,3a,4,7-hexahydro-2,7a-diaza-cyclohepta[jk]fluorene] | 3%
Cc1ccc2c(c1)c1c3n2C(c2ccccc2)CCC3(C)CN(C)C1 (stereo not drawn) [Compound 12, 2,3a,10-trimethyl-6-phenyl-2,3,3a,4,5,6-hexahydro-1H-indolo[3,2,1-ij][1,6]naphthyridine] | 5%
Cc1ccc2c(c1)c1c3n2C(c2ccccc2)=CCC3(C)CN(C)C1 (stereo not drawn) [Compound 10, 2,3a,10-trimethyl-6-phenyl-2,3,3a,4-tetrahydro-1H-indolo[3,2,1-ij][1,6]naphthyridine] | 9%
